The record followed here is ChEMBL document CHEMBL1142810, “Discovery of a potent and selective 5-ht5A receptor antagonist by high-throughput chemistry” (Bioorg Med Chem Lett, 2005).

In experiment [1] the target is T1, 5-hydroxytryptamine receptor 5A (Homo sapiens, UniProt P47898). Kind of experiment: Binding affinity towards human 5-hydroxytryptamine receptor 5A expressed in CHO cells using the radioligand [3H]LSD. It counts as cell-based.
In experiment [2] the target is 5-hydroxytryptamine receptor 1D (Homo sapiens, UniProt P28221). The experiment can be described thus: Binding affinity towards human 5-hydroxytryptamine receptor 1D expressed in CHO cells using the radioligand [3H]5-HT. It counts as cell-based.
For experiment [3], the target named is T2, Alpha-1B adrenergic receptor (Homo sapiens, UniProt P35368).
T2 sequence (P35368 whole entry): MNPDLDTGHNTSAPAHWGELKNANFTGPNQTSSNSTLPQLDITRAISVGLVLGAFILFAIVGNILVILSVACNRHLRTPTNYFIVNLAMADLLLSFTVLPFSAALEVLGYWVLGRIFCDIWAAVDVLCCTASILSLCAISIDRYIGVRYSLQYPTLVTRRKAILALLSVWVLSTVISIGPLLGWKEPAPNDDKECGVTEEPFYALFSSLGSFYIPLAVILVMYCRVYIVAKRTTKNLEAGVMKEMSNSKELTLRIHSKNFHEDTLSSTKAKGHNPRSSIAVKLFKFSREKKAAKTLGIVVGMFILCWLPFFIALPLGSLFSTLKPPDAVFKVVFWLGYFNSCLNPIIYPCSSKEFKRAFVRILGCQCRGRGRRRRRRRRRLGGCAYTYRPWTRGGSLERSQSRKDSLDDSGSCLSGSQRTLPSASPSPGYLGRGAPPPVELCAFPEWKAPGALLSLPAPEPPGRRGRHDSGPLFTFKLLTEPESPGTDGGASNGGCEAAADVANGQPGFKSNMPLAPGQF
The experiment can be described thus: Binding affinity towards human alpha-1B-adrenergic receptor expressed in CHO cells using the radioligand [3H]prazosin. It counts as cell-based.

In experiment [4] the target is 5-hydroxytryptamine receptor 7 (Homo sapiens, UniProt P34969). Kind of experiment: Binding affinity towards human 5-hydroxytryptamine receptor 7 expressed in HEK 293 cells using the radioligand [3H]5-CT. It counts as cell-based, HEK293.
Experiment [5] concerns the target T3, 5-hydroxytryptamine receptor 1F (Homo sapiens, UniProt P30939).
T3 sequence (P30939 whole entry): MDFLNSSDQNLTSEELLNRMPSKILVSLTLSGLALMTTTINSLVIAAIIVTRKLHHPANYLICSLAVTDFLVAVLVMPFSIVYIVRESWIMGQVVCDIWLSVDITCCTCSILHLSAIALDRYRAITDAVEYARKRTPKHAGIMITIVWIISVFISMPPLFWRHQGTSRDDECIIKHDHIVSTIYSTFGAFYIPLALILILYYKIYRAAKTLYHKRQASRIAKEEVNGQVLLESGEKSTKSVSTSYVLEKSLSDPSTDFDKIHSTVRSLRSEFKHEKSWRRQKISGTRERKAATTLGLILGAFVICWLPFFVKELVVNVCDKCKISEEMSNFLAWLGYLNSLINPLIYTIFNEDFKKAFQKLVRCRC
Kind of experiment: Binding affinity towards human 5-hydroxytryptamine receptor 1F expressed in HEK 293 cells using the radioligand [3H]5-HT. It counts as cell-based, HEK293.

The target of experiment [6] is 5-hydroxytryptamine receptor 2B (Homo sapiens, UniProt P41595). The experiment can be described thus: Binding affinity towards human 5-hydroxytryptamine receptor 2B expressed in HEK 293 cells using the radioligand [3H]5-HT. It counts as cell-based, HEK293.
The target in experiment [7] is T4, 5-hydroxytryptamine receptor 1A (Homo sapiens, UniProt P08908).
T4 sequence (P08908 whole entry): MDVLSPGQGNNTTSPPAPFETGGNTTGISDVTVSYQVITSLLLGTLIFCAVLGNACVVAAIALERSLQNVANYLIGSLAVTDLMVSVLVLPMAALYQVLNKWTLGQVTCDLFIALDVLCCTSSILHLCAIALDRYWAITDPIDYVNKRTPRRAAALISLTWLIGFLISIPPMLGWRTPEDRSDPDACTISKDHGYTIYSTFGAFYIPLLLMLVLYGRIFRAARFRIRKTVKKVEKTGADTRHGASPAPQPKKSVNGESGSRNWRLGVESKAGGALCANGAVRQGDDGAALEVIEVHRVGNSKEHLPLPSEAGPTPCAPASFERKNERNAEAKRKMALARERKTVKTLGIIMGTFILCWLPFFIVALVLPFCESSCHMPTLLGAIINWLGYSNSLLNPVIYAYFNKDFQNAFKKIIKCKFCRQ
The experiment can be described thus: Binding affinity towards human 5-hydroxytryptamine receptor 1A expressed in HEK 293 cells using the radioligand [3H]8-OH-DPAT. It counts as cell-based, HEK293.

The target in experiment [8] is 5-hydroxytryptamine receptor 2A (Homo sapiens, UniProt P28223). Kind of experiment: Binding affinity towards human 5-hydroxytryptamine receptor 2A expressed in HEK 293 cells using the radioligand [3H]ketanserin. It counts as cell-based, HEK293.
Experiment [9] deals with T5, 5-hydroxytryptamine receptor 2C (Homo sapiens, UniProt P28335).
T5 sequence (P28335 whole entry): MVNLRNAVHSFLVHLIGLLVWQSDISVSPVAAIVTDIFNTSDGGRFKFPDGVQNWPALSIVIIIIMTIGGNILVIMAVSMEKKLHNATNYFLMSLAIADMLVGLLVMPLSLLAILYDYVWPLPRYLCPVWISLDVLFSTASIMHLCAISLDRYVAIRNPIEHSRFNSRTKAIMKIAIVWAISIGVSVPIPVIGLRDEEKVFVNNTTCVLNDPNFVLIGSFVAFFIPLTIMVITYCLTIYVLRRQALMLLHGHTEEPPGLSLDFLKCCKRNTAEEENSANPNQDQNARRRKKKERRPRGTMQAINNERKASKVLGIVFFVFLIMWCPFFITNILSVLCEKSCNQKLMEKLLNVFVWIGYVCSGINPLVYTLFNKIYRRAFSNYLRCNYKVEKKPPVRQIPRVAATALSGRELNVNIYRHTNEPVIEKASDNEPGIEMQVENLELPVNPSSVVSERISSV
The experiment can be described thus: Binding affinity towards human 5-hydroxytryptamine receptor 2C expressed in HEK 293 cells using the radioligand [3H]mesulergine. It counts as cell-based, HEK293.

In experiment [10] the target is 5-hydroxytryptamine receptor 6 (Homo sapiens, UniProt P50406). The experiment can be described thus: Binding affinity towards human 5-hydroxytryptamine receptor 6 expressed in HeLa cells using the radioligand [3H]LSD. It counts as cell-based.
In another experiment the target is D(2) dopamine receptor (Homo sapiens, UniProt P14416). The experiment can be described thus: Binding affinity towards human dopamine receptor D2 expressed in CHO cells using the radioligand [125I]iodosulpiride. It counts as cell-based.
The target of a further experiment is D(3) dopamine receptor (Homo sapiens, UniProt P35462). Kind of experiment: Binding affinity towards human dopamine receptor D3 expressed in CHO cells using the radioligand [125I]iodosulpiride. It counts as cell-based.
Another experiment deals with T6, D(4) dopamine receptor (Homo sapiens, UniProt P21917).
T6 sequence (P21917 whole entry): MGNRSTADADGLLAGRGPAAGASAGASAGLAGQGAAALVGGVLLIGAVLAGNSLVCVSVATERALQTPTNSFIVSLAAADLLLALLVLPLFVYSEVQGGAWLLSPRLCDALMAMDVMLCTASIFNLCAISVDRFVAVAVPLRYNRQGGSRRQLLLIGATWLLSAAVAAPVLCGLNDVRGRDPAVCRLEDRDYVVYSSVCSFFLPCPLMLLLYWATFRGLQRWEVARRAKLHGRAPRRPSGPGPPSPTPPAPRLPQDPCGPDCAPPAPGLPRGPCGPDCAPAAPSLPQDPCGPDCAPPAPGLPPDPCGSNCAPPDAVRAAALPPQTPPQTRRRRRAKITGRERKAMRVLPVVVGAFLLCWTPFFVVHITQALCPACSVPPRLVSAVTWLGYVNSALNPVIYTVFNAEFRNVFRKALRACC
The experiment can be described thus: Binding affinity towards human dopamine receptor D4 expressed in CHO cells using the radioligand [125I]iodosulpiride. It counts as cell-based.

For experiment [11], the target named is 5-hydroxytryptamine receptor 1B (Homo sapiens, UniProt P28222). Kind of experiment: Binding affinity towards human 5-hydroxytryptamine receptor 1B expressed in CHO cells using the radioligand [3H]5-HT. It counts as cell-based.
Experiment [12] has as its target 5-hydroxytryptamine receptor 1E (Homo sapiens, UniProt P28566). The experiment can be described thus: Binding affinity towards human 5-hydroxytryptamine receptor 1E expressed in HEK 293 cells using the radioligand [3H]5-HT. It counts as cell-based, HEK293.
Experiment [13] concerns the target T1, 5-hydroxytryptamine receptor 5A. The experiment can be described thus: 5-CT-induced stimulation of [35S]GTP-gamma-S, binding to 5-Hydroxytryptamine receptor 5A expressed in HEK 293 cells with compound at 1 uM. It counts as functional, cell-based. Conditions: HEK293.

5-hydroxytryptamine receptor 1D, sequence (P28221 whole entry): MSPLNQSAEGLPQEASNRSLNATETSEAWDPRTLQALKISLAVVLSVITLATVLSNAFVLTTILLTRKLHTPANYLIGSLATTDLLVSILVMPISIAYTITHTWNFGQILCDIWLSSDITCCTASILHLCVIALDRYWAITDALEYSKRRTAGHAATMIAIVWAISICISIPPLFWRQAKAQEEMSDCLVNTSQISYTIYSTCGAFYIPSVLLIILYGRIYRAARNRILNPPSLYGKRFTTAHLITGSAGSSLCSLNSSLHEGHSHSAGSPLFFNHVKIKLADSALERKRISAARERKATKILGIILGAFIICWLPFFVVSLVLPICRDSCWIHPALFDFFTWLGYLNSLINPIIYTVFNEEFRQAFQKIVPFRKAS
5-hydroxytryptamine receptor 2B, sequence (P41595 whole entry): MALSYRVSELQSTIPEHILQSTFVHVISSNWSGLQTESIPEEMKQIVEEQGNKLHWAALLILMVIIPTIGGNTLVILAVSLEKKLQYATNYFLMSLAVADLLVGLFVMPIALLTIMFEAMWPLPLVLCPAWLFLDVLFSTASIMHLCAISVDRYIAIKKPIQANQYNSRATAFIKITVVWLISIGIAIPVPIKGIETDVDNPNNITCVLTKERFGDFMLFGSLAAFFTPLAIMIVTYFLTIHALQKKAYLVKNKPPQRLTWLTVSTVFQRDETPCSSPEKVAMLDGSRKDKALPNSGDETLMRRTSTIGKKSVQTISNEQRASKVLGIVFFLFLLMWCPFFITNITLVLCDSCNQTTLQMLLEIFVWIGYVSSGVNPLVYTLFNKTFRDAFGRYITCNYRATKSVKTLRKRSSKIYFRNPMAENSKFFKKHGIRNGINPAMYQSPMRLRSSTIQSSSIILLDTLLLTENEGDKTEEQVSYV
5-hydroxytryptamine receptor 1E, sequence (P28566 whole entry): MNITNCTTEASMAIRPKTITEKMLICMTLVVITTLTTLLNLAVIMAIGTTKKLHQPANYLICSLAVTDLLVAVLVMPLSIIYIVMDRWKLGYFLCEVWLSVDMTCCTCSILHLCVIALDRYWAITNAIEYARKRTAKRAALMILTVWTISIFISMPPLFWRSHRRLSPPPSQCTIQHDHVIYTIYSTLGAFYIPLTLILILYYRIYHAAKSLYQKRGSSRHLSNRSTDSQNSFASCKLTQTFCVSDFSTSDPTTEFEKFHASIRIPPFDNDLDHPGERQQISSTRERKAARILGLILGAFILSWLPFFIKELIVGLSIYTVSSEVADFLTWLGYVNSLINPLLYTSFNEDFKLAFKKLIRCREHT
5-hydroxytryptamine receptor 1B, sequence (P28222 whole entry): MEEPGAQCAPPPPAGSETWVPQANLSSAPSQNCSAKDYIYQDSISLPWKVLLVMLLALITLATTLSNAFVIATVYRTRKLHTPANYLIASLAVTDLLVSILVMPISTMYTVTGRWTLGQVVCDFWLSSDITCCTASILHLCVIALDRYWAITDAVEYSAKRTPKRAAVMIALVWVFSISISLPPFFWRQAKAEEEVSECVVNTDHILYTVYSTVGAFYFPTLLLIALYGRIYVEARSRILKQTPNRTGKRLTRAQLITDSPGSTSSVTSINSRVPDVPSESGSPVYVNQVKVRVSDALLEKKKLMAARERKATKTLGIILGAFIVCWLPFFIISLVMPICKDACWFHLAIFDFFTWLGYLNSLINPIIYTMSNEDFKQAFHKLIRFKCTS
5-hydroxytryptamine receptor 7, sequence (P34969 whole entry): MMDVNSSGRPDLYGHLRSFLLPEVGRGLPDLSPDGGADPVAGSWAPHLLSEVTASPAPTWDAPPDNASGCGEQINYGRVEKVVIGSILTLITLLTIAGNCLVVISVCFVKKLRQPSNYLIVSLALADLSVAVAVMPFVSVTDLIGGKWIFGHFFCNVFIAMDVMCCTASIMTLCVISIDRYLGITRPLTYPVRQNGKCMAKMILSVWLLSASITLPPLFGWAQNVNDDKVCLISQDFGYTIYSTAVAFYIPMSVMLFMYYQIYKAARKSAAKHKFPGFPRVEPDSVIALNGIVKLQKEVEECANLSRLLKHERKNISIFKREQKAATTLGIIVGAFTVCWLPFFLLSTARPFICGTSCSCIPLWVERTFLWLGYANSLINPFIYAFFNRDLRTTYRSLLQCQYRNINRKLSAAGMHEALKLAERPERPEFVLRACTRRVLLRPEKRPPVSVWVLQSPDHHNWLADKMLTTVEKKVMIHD
5-hydroxytryptamine receptor 2A, sequence (P28223 whole entry): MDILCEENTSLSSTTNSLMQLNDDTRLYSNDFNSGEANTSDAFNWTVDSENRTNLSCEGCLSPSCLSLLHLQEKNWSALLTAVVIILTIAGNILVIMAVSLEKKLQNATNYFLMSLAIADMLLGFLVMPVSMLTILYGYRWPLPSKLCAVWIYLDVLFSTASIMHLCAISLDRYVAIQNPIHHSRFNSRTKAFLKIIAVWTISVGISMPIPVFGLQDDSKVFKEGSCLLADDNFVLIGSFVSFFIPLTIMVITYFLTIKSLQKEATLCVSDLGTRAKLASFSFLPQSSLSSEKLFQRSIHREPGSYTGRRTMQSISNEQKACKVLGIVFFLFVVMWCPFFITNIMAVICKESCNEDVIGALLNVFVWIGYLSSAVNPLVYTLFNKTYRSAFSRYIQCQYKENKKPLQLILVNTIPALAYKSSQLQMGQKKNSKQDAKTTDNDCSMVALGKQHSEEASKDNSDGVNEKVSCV
T1 sequence (P47898 whole entry): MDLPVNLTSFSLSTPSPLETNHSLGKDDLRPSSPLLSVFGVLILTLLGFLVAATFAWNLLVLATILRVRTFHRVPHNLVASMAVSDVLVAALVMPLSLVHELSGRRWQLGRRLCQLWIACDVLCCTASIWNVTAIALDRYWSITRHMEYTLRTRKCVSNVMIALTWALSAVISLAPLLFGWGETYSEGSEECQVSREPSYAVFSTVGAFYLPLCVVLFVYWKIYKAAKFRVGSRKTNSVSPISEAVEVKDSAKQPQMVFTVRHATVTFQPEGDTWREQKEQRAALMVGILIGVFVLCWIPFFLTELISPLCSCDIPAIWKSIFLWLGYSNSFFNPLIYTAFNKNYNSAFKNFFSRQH
D(2) dopamine receptor, sequence (P14416 whole entry): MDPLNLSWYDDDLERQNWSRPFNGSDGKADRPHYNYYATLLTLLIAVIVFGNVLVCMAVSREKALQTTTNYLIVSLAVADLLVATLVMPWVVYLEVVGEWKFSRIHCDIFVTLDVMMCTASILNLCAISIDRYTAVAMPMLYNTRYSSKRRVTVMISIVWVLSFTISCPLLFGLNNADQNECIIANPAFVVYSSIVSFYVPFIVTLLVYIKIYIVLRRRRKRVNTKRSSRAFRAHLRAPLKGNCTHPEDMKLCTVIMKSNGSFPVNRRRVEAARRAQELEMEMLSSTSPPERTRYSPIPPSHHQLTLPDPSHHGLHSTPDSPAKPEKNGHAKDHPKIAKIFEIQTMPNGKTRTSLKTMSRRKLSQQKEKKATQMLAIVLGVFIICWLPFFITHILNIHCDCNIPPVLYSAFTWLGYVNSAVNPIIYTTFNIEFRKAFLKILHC
D(3) dopamine receptor, sequence (P35462 whole entry): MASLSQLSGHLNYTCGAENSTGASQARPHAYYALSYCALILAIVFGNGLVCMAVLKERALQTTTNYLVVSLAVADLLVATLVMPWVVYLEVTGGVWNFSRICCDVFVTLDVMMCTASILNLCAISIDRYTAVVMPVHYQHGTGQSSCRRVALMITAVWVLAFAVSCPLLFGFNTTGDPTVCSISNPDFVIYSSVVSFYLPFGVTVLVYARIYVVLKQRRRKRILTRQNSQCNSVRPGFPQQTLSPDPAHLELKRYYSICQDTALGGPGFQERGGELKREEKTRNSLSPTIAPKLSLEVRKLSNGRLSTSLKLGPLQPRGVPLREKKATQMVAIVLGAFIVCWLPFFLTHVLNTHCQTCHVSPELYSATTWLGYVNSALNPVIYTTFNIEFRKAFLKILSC
5-hydroxytryptamine receptor 6, sequence (P50406 whole entry): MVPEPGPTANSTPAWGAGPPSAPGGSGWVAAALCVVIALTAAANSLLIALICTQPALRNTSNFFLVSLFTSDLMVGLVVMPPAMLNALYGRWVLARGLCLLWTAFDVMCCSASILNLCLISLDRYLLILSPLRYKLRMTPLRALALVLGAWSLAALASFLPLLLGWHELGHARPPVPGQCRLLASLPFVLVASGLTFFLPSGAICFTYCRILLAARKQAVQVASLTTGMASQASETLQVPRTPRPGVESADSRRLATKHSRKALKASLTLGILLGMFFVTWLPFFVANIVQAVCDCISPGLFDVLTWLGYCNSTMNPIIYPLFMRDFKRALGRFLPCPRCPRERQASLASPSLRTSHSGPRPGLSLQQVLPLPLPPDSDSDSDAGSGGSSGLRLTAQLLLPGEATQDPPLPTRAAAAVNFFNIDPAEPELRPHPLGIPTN

In general, Ki refers to the equilibrium dissociation constant of an inhibitor or competing ligand from its target. A high value points to weaker binding. In the case of `CN(C)CCN(Cc1ccc(-c2ccc(CNCCc3ccccc3)cc2)cc1)S(=O)(=O)/C=C/c1ccccc1`, the Ki in [1] was 251 nM. This counts as sub-micromolar.

For the compound `CN(C)CCN(Cc1ccc(-c2ccc(CNCCc3ccccc3)cc2)cc1)C(=O)/C=C/c1ccccc1`, the Ki is 158 nM in experiment [2]; 200 nM in experiment [3]; 1000 nM in experiment [4]; above 10000 nM in experiment [5]; 1260 nM in [6]; 794 nM in experiment [7]. The Ki in experiment [8] was 398 nM; in experiment [9], 631 nM; in [1] it was 25.1 nM; in experiment [10] it was above 7940 nM; on D(2) dopamine receptor, 794 nM; on D(3) dopamine receptor, 1000 nM. The Ki on D(4) dopamine receptor was 1260 nM; in experiment [11], 631 nM; in [12], above 10000 nM.

`c1ccc(CCNCc2ccc(-c3cccc(CNC4CCN(Cc5ccccc5)CC4)c3)cc2)cc1` had an inhibitory constant (Ki) in [1] of 200 nM.

Turning to `CN(C)CCN(Cc1ccc(-c2ccc(CNCCc3ccccc3)cc2)nc1)C(=O)CCC1CCCC1`, the affinity in experiment [1] corresponds to a Ki of 31.6 nM.

As to `CN(C)CCN(Cc1ccc(-c2ccc(CN)cc2)cc1)C(=O)CCC1CCCC1`, affinity in experiment [1] was put at a Ki of 3160 nM.

In the case of `CN(C)CCN(Cc1ccc(-c2ccc(CNCCc3ccccc3)cn2)cc1)C(=O)/C=C/c1ccccc1`, in experiment [1], the Ki was 5.01 nM.

As to `CN(C)CCN(Cc1ccc(-c2ccc(CNCCc3ccccc3)cc2)cc1)C(=O)Nc1ccccc1`, the inhibition constant Ki in experiment [1] is 398 nM.

Compound `CN(C)CCN(Cc1ccc(-c2ccc(CNCCc3ccccn3)cc2)cc1)C(=O)CCC1CCCC1` had an inhibition constant Ki in [1] of 31.6 nM.

In experiment [1], `O=C(c1ccc2c(c1)OCO2)N(Cc1ccc(-c2ccc(CNCCc3ccccc3)cc2)cc1)Cc1cccnc1` showed an inhibition constant (Ki) of 200 nM.

Regarding `O=C(CCC1CCCC1)N(Cc1ccc(-c2ccc(CNCCc3ccccc3)cc2)cc1)CC1CCCCN1` (stereo not given), in experiment [1], the Ki was 25.1 nM.

With `CN(C)CCN(Cc1ccc(-c2ccc(CNCCc3ccccc3)cc2)cc1)C(=O)C1CC1c1ccccc1` (stereo not given), in experiment [1], the affinity corresponds to a Ki of 79.4 nM. Compared with the last compound, the Ki is about 3.2-fold higher.

Take `COCCNCc1ccc(-c2ccc(CN(Cc3cccnc3)C(=O)/C=C/c3ccccc3)cc2)cc1`: the Ki in experiment [1] was 6310 nM.

In [1], `CN(C)CCN(Cc1ccc(-c2ccc(CNCCc3ccccc3)cn2)cc1)C(=O)CCC1CCCC1` showed an inhibitory constant (Ki) of 12.6 nM.

`CN(C)CCN(Cc1ccc(-c2ccc(CNCCc3ccccc3)cc2)nc1)C(=O)/C=C/c1ccccc1` had a Ki in [1] of 25.1 nM.

The compound `CN(C)CCN(Cc1ccc(-c2ccc(CNCCOc3ccccc3)cc2)cc1)C(=O)CCC1CCCC1` had an inhibition constant Ki in experiment [1] of 79.4 nM.

`CN(C)CCN(Cc1ccc(-c2ccc(CNC3Cc4ccccc4C3)cc2)cc1)C(=O)CCC1CCCC1` showed a Ki in [1] of 251 nM.

Compound `CN(C)CCN(Cc1ccc(-c2ccc(CNCCc3ccccc3)cc2)cc1)C(=O)c1ccccc1` had a Ki in [1] of 631 nM.

`O=C(/C=C/c1ccccc1)N(Cc1ccc(-c2ccc(CNCCc3ccccc3)cc2)cc1)Cc1cccnc1`: the Ki in [2] was 1260 nM; in [3], 316 nM; in experiment [4], 1260 nM; in [5], above 1000 nM; in experiment [6], 2000 nM; in [7], 1000 nM. Also, the inhibitory constant (Ki) in [8] is 794 nM; in [9] it was 1000 nM; in [1], 50.1 nM; in experiment [10], above 2000 nM; at D(2) dopamine receptor, 1260 nM; on D(3) dopamine receptor it was 1580 nM. In addition, the Ki at D(4) dopamine receptor was 1580 nM; in experiment [11], 631 nM; in experiment [12], above 10000 nM.

For `CN(C)CCN(Cc1ccc(-c2ccc(CNCCc3ccccc3)cc2)cc1)C(=O)CCC1CCCC1` [listing 1 of 2 here], the Ki in experiment [2] is 398 nM; in experiment [3] it was 316 nM; in experiment [4] it was 3980 nM; in experiment [5] it was above 10000 nM; in experiment [6], 1000 nM; in [7] it was 501 nM. For the same compound, the Ki in [8] was 794 nM; in [9], 398 nM; in experiment [1], 6.31 nM; in experiment [10], 3980 nM; on D(2) dopamine receptor it was 1260 nM; on D(3) dopamine receptor it was 631 nM. Further, the inhibitory constant (Ki) at D(4) dopamine receptor was 794 nM; in experiment [11], 316 nM; in [12] it was above 10000 nM.

As usually defined, the pKb is the negative decadic logarithm of the Kb, by convention in mol/L. Regarding `CN(C)CCN(Cc1ccc(-c2ccc(CNCCc3ccccc3)cc2)cc1)C(=O)CCC1CCCC1` [listing 2 of 2 here], the pKb in experiment [13] is 8.

As for `O=C(/C=C/c1ccccc1)N(Cc1ccc(-c2ccc(CNCc3ccc4c(c3)OCO4)cc2)cc1)Cc1cccnc1`, the inhibitory constant (Ki) in experiment [1] is 1000 nM. That is a single-digit micromolar value.

As for `c1ccc(CCNCc2ccc(-c3ccc(CNC4CCN(Cc5ccccc5)CC4)cc3)cc2)cc1`, the affinity in experiment [1] corresponds to a Ki of 126 nM.

`COc1cccc(CCN(Cc2ccc(-c3ccc(CNCCc4ccccc4)cc3)cc2)C(=O)/C=C/c2ccccc2)c1` gave an inhibitory constant (Ki) in [1] of 501 nM.
